Data on one compound can be found in US6458580B1, “Fungal sulphur source and method of using the same” (Commonwealth Scientific and Industrial Research Organisation, priority 1997, dated 2002).

One assay has as its system rumen fungi. Briefly: Effect of different intra-ruminal doses on fungal zoospore numbers in the rumen. The format is in vivo, sheep. Here is the method:
Six cross-bred sheep [[…]] having rumen cannula were moved metabolism cages equipped with automatic feeders. They were given eight equal buckets of feed a day (three hourly) and offered water ad-lib. The sheep were offered 1.1 kg of a low sulphur feed (see below). After a period of three weeks on the diet rumen digesta was collected and rumen fluid (150 ml)was taken for zoospore counts. (An extra 100 ml of rumen digest was taken from each animal combined and mixed and 100 ml returned to each rumen to minimise differences between animals.) Zoospores were assessed by standard methods for handling anaerobic fungi. Serial dilutions of rumen fluid were prepared using an anaerobic diluent. Agar roll tubes were inoculated using a syringe with 0.2 ml of either a dilution of rumen fluid or undiluted rumen fluid. The media used was one mimicking the rumen environment but without added rumen fluid and with antibiotics (penicillin and streptomycin) added to stop overgrowth by rumen bacteria. After incubation the number of thallus forming units were counted and the number of zoospores in the rumen fluid calculated. […] The sheep were initially infused at the rate of 0.4 mMoles sulphur per day per 4 liters (ie 0.1 mM in rumen) This was equivalent to 12.67 mg Sulphur/day. The same protocols were used with successively higher doses. […] Each infusion was for one weeks before sampling rumen fluid and infusing the higher dose. […] Wheat straw was milled and approximately 40 kg quantities were transferred from the Gell feed mill to a mixer where 4 l of 40% NaOH was added while mixing. The feed was bagged (approximately two bags per 40 kg) and left for several days before a minerals mix was added. Two bags were placed in the mixer and the compounds in Table 3 were added. Trace elements were made up in 140 ml in water and were added to the urea which was previously dissolved in 25 Liters of water. This solution was then added to two bags of alkali treated feed while mixing. The remaining dry chemicals were mixed and the appropriate amount added (1.638 kg) onto the mixing feed. […]

The next assay concerns Total Bacteria. As to the kind of experiment: Effect of infusion on total bacteria in rumen fluid. Type of assay: in vivo. The arrangement: Total Bacteria, MPA: unit not given here. To be noted: individual sheep and Aver. n = 13; for Total Bacteria, MPA: MPA infused at 192 mg Sulphur/sheep/day; for Total Bacteria, log (+): versus control period. The protocol:
Feed was prepared as previously described (see example 4). Initially 22 sheep were fed 1 kg of alkali straw/day in the animal house for 4 days to select out sheep not eating the diet. 19 sheep were weighted and transferred to metabolism cages and feed the alkali straw diet ad-lib. Sheep were fed and on the following day the feed refusal weighted and if less then 100 g remained a further 100 g was fed; if 100-200g of feed remained the sheep was given the same amount of feed; if over 200 g of feed was left the sheep was given 100 g less feed. Over the following week another 6 sheep were moved out of the experiment (usually due to very low or erratic intakes). […] After 14 days infusion the collection period of 7 days commenced. At the end of the collection period samples of rumen digesta were taken for microbiology and other analyses. Rumen fluid was collected and fungal zoospores and total bacteria assessed as described in example 4 (the total bacteria were assessed on the same medium but without antibiotics). Cellulolytic bacteria were assessed by a most probable number count. Rumen fluid was serially diluted and subsamples of each dilution inoculated into 5 culture tubes containing an anaerobic medium containing rumen fluid and strips of filter paper. After incubation the presence of cellulolytic bacteria was detected by degradation of the paper and the numbers of positive tubes compared to tables to give a number of these bacteria in the original sample. Following the last sampling the infusion was stopped in the first group of sheep and on the following day the infusion treatment was begun in the other group of seven sheep. The second period (the crossover) was conducted in the same way as the first period with the same samples being taken at the same times.

Where “and” joins values, the source holds several entries; their conditions need not be identical. Identical values can stand only once.

`O=C(O)CCS` [MPA, 3-mercaptopropanoic acid]: the levels of fungi entry with rumen fungi (dose of 0.75 mM (95 mg S/day), four of the six animals) is “≈ 1000 /ml”. Further, in the assay with rumen fungi (rumen concentration, 190 mg S/day, very low S content diet), the “optimum level of MPA” value was determined as 1.5 mM. Moreover, in the assay on rumen fungi (sheep on low sulphur diet (0.052% sulphur), 0-5.0 mM in rumen, seven days per dose, FIG. 3), the “relation between concentration of MPA in the rumen and numbers of zoospores in rumen fluid” value is reported as “clear dose response”. Moreover, the “Total Bacteria, MPA” value in the assay with Total Bacteria was 10.50 × 10^8 (2×) and 8.07 × 10^8 and 6.83 × 10^8 and 7.50 × 10^8 and 10.00 × 10^8 and 7.17 × 10^8 and 5.87 × 10^8 and 12.00 × 10^8 and 14.50 × 10^8 and 10.83 × 10^8 and 10.67 × 10^8 and 6.33 × 10^8; with Total Bacteria (mean), 9.29 × 10^8. In addition, the “Total Bacteria, log (+)” value with Total Bacteria is 0.27 log and 0.31 log (2×) and −0.34 log (2×) and −0.17 log and 0.02 log and 0.05 log and 0.25 log (2×) and 0.29 log and 0.33 log and 0.10 log; in the assay with Total Bacteria (mean) it was 0.10 log.
